Assay results reported in PMC11054573, “Identification of Ureidocoumarin-Based Selective Discoidin Domain Receptor 1 (DDR1) Inhibitors via Drug Repurposing Approach, Biological Evaluation, and In Silico Studies” (Pharmaceuticals, 2024).
Where two headings read alike, the source gives them in different places.

Experiments:
DDR1 [1] = biological target: T1, DDR1 (Homo sapiens, UniProt Q08345); test: RBC radiometric HotSpot kinase assay, DDR1; conditions: for inhibition at 10 µM: read-out: % Inhibition at 10 μM (SEM) DDR1
T1 sequence (Q08345 19-913): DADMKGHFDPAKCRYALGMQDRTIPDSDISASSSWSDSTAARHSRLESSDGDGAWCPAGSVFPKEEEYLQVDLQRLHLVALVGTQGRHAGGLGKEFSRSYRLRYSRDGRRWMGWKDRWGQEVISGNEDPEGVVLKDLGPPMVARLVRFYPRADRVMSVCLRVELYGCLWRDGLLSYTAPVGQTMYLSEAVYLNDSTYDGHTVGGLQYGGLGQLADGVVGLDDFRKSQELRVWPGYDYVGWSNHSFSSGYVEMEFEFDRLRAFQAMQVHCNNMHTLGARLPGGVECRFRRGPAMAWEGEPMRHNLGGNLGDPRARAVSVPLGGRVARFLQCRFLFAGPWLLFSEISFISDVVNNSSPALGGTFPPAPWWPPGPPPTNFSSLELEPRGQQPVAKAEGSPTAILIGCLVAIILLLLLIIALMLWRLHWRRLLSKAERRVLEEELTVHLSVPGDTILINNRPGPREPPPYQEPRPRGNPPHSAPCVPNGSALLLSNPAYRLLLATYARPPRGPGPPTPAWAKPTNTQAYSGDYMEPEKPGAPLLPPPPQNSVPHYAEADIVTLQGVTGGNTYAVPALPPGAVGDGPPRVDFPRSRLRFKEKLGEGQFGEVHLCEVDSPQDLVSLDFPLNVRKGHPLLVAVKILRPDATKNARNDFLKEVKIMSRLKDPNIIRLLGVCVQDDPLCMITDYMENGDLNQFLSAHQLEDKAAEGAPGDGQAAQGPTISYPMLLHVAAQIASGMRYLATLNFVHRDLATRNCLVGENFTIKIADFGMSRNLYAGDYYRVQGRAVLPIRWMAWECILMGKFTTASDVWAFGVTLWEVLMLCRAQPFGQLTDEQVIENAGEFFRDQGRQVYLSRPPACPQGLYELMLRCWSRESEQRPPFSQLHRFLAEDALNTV
Method: (§7) All compounds in this study were tested against DDR1 and DDR2 at a 10 µM dose at Reaction Biology Corporation (RBC, Malvern, PA, USA) employing the radiometric HotSpot Kinase assay protocol (Table 1).

DDR2 = biological target: T2, DDR2 (Homo sapiens, UniProt Q16832); test: RBC radiometric HotSpot kinase assay, DDR2; conditions: for inhibition at 10 µM: read-out: % Inhibition at 10 μM (SEM) DDR2
T2 sequence (Q16832 22-855): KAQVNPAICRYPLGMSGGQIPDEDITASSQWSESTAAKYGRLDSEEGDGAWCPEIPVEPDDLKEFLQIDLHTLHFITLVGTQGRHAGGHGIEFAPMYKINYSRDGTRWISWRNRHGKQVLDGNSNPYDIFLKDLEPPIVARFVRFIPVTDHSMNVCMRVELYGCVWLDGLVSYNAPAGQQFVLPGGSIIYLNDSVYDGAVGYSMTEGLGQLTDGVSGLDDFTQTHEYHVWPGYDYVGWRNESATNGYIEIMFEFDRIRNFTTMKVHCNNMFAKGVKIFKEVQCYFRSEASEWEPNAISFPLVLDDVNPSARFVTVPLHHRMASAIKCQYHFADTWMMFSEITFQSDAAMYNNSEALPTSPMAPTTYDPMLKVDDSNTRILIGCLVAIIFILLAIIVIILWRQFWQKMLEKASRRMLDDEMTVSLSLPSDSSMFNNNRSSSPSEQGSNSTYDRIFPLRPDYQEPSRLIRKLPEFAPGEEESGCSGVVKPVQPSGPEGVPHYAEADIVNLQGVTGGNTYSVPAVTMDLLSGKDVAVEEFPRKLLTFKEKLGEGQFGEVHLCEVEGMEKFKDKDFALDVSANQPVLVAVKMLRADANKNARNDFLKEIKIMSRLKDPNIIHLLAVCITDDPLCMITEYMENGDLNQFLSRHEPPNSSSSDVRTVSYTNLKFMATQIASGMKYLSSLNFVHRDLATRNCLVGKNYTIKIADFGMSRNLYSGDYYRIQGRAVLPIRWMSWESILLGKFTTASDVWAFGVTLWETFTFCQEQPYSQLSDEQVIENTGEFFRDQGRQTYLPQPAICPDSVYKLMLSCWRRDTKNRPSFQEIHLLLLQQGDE
Method: as §7

c-Kit kinase = biological target: T3, c-Kit kinase (Homo sapiens, UniProt P10721); test: Biochemical kinase profile (23 oncogenic kinases), c-Kit; conditions: 10 μM compound, 10 μM ATP, single-dose duplicate
T3 construct: purchased Reaction Biology Corporation (RBC)
T3 sequence (P10721 26-976): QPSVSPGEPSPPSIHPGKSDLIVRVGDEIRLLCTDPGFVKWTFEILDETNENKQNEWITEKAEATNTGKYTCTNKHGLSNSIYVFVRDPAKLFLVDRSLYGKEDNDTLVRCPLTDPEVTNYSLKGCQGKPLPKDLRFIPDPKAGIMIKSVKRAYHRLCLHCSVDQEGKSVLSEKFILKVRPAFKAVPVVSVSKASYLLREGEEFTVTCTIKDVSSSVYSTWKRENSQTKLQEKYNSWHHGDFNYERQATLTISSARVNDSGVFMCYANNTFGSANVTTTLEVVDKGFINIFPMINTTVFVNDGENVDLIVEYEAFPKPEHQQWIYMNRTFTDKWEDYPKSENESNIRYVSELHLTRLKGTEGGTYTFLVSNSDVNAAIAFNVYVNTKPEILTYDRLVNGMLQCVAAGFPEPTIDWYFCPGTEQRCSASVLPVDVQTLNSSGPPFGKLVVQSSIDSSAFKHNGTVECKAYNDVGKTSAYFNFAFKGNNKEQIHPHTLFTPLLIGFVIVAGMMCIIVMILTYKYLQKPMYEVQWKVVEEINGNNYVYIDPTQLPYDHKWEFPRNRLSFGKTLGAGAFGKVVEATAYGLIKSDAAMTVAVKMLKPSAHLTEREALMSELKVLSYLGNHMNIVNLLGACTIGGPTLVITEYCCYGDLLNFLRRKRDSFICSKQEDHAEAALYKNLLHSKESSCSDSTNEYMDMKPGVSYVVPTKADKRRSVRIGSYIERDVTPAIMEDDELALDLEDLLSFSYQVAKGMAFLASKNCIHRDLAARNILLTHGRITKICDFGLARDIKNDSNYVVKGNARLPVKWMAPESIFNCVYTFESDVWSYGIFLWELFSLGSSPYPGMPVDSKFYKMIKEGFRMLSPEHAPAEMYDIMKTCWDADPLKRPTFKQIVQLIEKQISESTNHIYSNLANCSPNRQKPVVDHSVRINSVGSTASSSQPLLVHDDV
Method: (§1) These tested kinases were selected based on common off targets for several DDR1/2 kinase inhibitors.
(§2) Reaction Biology Corporation (RBC) Kinase HotSpot^SM service was adopted for biochemical evaluation of the target compounds against DDR1 and DDR2 kinases along with the kinase profile of compound 3q according to the reported assay protocol.
(§3) Figure 5 Inhibition percentages exerted by compound 3q (10 µM) over a panel of 23 oncogenic kinases. Compound 3q was tested in a single-dose duplicate mode, and the reactions were carried out at 10 μM ATP.

TrkA kinase = biological target: T4, TrkA kinase (Homo sapiens, UniProt P04629); test: Biochemical kinase profile (23 oncogenic kinases), TrkA; conditions: 10 μM compound, 10 μM ATP, single-dose duplicate
T4 construct: purchased Reaction Biology Corporation (RBC)
T4 sequence (P04629 33-796): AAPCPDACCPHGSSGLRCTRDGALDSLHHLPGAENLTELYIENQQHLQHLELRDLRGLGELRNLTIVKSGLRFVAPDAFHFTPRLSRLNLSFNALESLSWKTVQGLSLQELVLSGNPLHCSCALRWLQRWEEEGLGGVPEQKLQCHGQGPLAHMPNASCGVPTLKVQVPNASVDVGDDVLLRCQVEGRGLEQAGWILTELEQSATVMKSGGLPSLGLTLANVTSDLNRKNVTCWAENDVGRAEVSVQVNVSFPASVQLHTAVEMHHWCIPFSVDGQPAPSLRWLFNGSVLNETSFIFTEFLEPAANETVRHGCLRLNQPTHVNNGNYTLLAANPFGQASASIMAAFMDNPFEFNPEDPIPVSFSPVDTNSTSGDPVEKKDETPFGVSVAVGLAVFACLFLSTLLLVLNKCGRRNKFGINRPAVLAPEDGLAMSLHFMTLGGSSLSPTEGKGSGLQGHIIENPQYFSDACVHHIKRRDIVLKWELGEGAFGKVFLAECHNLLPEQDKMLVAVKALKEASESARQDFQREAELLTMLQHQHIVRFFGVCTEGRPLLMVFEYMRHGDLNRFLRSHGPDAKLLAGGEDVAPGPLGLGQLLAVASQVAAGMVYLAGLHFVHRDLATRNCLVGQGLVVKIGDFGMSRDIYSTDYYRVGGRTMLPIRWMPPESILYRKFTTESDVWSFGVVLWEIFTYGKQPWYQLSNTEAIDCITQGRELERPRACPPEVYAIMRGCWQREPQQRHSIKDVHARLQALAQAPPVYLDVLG
Method: as §1, §2, §3

ABL1 kinase = biological target: T5, ABL1 kinase (Homo sapiens, UniProt P00519); test: Biochemical kinase profile (23 oncogenic kinases), ABL1; conditions: 10 μM compound, 10 μM ATP, single-dose duplicate; read-out: % inhibition ABL1 kinase (and rest of tested kinases)
T5 construct: purchased Reaction Biology Corporation (RBC)
T5 sequence (P00519 whole entry): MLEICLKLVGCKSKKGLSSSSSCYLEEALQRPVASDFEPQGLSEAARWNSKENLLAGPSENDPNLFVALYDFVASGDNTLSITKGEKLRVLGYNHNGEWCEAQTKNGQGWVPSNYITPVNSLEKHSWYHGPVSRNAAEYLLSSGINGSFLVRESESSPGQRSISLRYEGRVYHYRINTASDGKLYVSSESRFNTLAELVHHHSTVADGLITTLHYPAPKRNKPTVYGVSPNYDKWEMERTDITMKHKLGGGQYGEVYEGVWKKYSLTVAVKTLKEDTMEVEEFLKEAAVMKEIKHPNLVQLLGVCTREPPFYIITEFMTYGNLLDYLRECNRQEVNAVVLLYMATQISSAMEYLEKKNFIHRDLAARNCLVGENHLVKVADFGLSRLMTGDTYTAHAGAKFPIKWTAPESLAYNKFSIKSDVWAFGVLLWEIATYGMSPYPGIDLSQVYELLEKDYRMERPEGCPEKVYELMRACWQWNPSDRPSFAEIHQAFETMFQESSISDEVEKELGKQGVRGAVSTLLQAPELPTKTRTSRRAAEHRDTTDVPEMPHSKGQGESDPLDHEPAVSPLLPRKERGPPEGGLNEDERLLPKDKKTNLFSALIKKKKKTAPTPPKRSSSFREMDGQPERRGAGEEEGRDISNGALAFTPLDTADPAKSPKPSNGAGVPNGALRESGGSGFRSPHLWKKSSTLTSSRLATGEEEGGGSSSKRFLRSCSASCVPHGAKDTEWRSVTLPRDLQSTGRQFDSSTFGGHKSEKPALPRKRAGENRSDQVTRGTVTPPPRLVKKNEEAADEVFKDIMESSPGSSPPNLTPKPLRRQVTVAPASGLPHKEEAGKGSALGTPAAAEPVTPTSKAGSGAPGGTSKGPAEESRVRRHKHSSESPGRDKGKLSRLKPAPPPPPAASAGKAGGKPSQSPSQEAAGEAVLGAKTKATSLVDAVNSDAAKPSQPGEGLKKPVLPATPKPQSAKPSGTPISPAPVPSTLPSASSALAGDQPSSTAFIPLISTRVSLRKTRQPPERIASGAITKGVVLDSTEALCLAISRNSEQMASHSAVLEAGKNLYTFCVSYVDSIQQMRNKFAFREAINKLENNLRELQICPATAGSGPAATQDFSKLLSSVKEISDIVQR
Method: as §1, §2, §3

K562 leukemia cells = test: NCI SRB antiproliferative assay, K562; assay type: cell-based; conditions: Homo sapiens, read-out: % Growth inhibition at 10 µM K562
Method: (§4) Six members, 3a, 3g–j, and 3q, out of the investigated compounds were further evaluated for their antiproliferative effects against human cancer cell lines, including leukemia (K562), colon cancer (HCT116), non-small cell lung (NSCL) cancer (A549, NCI-H23 and NCI-H460), and breast cancer (MCF-7 and T47D) cells. The tested cell lines’ choice depended on their elevated DDR1 expression levels. The cell lines were all treated with a 10 µM concentration of the tested compounds, and the results were expressed as the percentage of growth inhibition (%GI) (Table 4).
(§5) Inhibition of the tumor relevant carbonic anhydrases IX and XII may be one of these additional mechanisms.
(§6) The evaluation of the antiproliferative activities of compounds 3a, 3g–j, and 3q over a panel of DDR1-dependent cell lines was conducted employing the sensitive Sulforhodamine B (SRB) assay at the National Cancer Institute (NCI), Bethesda, Maryland, USA, following the standard protocol.

[2] = system: HCT116 colon cancer cells; test: NCI SRB antiproliferative assay, HCT116; assay type: cell-based; conditions: Homo sapiens, HCT-116; read-out: % Growth inhibition at 10 µM HCT116
Method: as §4, §5, §6

[3] = system: A549 non-small cell lung cancer cells; test: NCI SRB antiproliferative assay, A549; assay type: cell-based; conditions: Homo sapiens, read-out: % Growth inhibition at 10 µM A549
Method: as §4, §5, §6

[4] = system: NCI-H23 non-small cell lung cancer cells; test: NCI SRB antiproliferative assay, NCI-H23; assay type: cell-based; conditions: Homo sapiens, read-out: % Growth inhibition at 10 µM NCI-H23
Method: as §4, §5, §6

[5] = system: NCI-H460 non-small cell lung cancer cells; test: NCI SRB antiproliferative assay, NCI-H460; assay type: cell-based; conditions: Homo sapiens, read-out: % Growth inhibition at 10 µM NCI-H460
Method: as §4, §5, §6

[6] = system: MCF-7 breast cancer cells; test: NCI SRB antiproliferative assay, MCF-7; assay type: cell-based; conditions: Homo sapiens, MCF7; read-out: % Growth inhibition at 10 µM MCF-7
Method: as §4, §5, §6

T47D breast cancer cells [7] = test: NCI SRB antiproliferative assay, T47D; assay type: cell-based; conditions: Homo sapiens, read-out: % Growth inhibition at 10 µM T47D
Method: as §4, §5, §6

[8] = system: DDR1-dependent cancer cell lines; test: NCI SRB antiproliferative assay, whole panel of DDR1-dependent cell lines; assay type: cell-based, human; conditions: 10 µM, span over the seven cell lines
Method: as §4, §5, §6

[9] = system: HCT116 colon cancer cells; conditions: reported data ref 20; cited from earlier work
[10] = system: A549 non-small cell lung cancer cells; conditions: reported data ref 20; cited from earlier work
T47D breast cancer cells [11] = conditions: reported data ref 20; cited from earlier work
DDR1 [12] = biological target: T1, DDR1; parameters: purchased Reaction Biology Corporation (RBC, Malvern, PA, USA); conditions: cited from earlier work

O=C(Nc1ccc2oc(=O)ccc2c1)Nc1ccc(F)cc1F [Compound 3m]
inhibition at 10 µM (DDR1 [1]): 5.83% | inhibition at 10 µM (DDR2): 0.78%

Cc1cc(Cl)ccc1NC(=O)Nc1ccc2oc(=O)ccc2c1 [Compound 3n]
inhibition at 10 µM (DDR1 [1]): 10.7% | inhibition at 10 µM (DDR2): 8.02%

Cc1cccc(Cl)c1NC(=O)Nc1ccc2oc(=O)ccc2c1 [Compound 3o]
inhibition at 10 µM (DDR1 [1]): 15.7% | inhibition at 10 µM (DDR2): -1.4%

O=C(Nc1ccc2oc(=O)ccc2c1)Nc1c(Br)cc(F)cc1Br [Compound 3p]
inhibition at 10 µM (DDR1 [1]): 15% | inhibition at 10 µM (DDR2): 17.1%

O=C(Nc1cccc(OC(F)(F)F)c1)Nc1ccc2oc(=O)ccc2c1 [Compound 3q, 1-(2-Oxo-2H-chromen-6-yl)-3-(3-(trifluoromethoxy)phenyl)urea]
%EI c-Kit kinase (c-Kit kinase): 75.59% | %EI TrkA kinase (TrkA kinase): 46.95% | inhibition at 10 µM (ABL1 kinase): < 25% | inhibition at 10 µM (K562 leukemia cells): 67.1% | inhibition at 10 µM [2]: 66.3% | inhibition at 10 µM [3]: 45.6% | inhibition at 10 µM [4]: 56.6% | inhibition at 10 µM [5]: 69.9% | inhibition at 10 µM [6]: 57% | inhibition at 10 µM (T47D breast cancer cells [7]): 69.4% | %GI over all tested cell lines [8]: 45.65–69.93% | IC50 (DDR1 [1]): 191 nM | SI: Selectivity index (IC50 DDR2/IC50 DDR1) (DDR1 [1]; DDR1 over DDR2): 26.6 | inhibition at 10 µM (DDR1 [1]): 87.4% | IC50 (DDR2): 5080 nM | inhibition at 10 µM (DDR2): 70.1%

O=C(Nc1ccc2oc(=O)ccc2c1)c1ccc(Cl)c(C(F)(F)F)c1 [Compound 4a]
inhibition at 10 µM (DDR1 [1]): 5.82% | inhibition at 10 µM (DDR2): 3.77%

O=C(Nc1ccc2oc(=O)ccc2c1)c1cc(C(F)(F)F)cc(C(F)(F)F)c1 [Compound 4b]
inhibition at 10 µM (DDR1 [1]): 12.6% | inhibition at 10 µM (DDR2): 6.06%

O=C(Nc1ccc2oc(=O)ccc2c1)c1cc(F)cc(F)c1 [Compound 4c]
inhibition at 10 µM (DDR1 [1]): 22.4% | inhibition at 10 µM (DDR2): 17%

CCN1CCN(Cc2ccc(C(=O)Nc3ccc(C)c(Oc4ccc5c(c4)CC(=O)N5)c3)cc2C(F)(F)F)CC1 [DDR1-IN-1]
GI50 [9]: 8700 nM | GI50 [10]: > 10000 nM | GI50 (T47D breast cancer cells [11]): > 10000 nM | IC50 (DDR2): 59.7 nM

O=C(Nc1cccc(Cl)c1)Nc1cc2ncncc2cc1OCc1cccc(F)c1 [KST9046]
IC50 (DDR1 [12]): 4380 nM

CCN1CCN(Cc2ccc(NC(=O)Nc3nc4ccc(Oc5ccnc(C(=O)NC)c5)cc4s3)cc2C(F)(F)F)CC1 [KST016366]
IC50 (DDR1 [12]): 26.5 nM

Cn1ccc(-c2cncc(CNc3cc(C(=O)Nc4cccc(OC(F)(F)F)c4)ccc3F)c2)n1 [VU6015929, reference compound]
IC50 (DDR2): 1.55 nM
